Results: patent US10993985B2, “Methods of treating acute myeloid leukemia” (BioLineRx Ltd., priority 2016, dated 2021)
Positions of bridges follow the written chain, without caps; N, C: chain ends. Non-standard residues stand in square brackets, D forms with d. 2Nal = N[C@@H](Cc1ccc2ccccc2c1)C(=O)O; Cit = NC(=O)NCCC[C@H](N)C(=O)O

Tests used:
[1] = tested on: blast cells in peripheral blood (PB) of AML patients; assay: Phase 1/2 study: mobilization of blast cells to peripheral blood after BL-8040 in relapsed or refractory AML patients; type: in vivo, human
Protocol: In an open-label, single arm, phase 1/2 study, patients diagnosed with AML with relapsed or refractory disease received a once daily subcutaneous (SC) dose of BL-8040 as monotherapy on days 1-2 followed by the same dose of BL-8040 plus Ara-C (1.5 g/m2 for patients ≥60; 3 g/m2 for patients <60) on days 3-7. Six dose levels of BL-8040 (0.5-2.0 mg/kg) were tested in the dose escalation phase with 1.5 mg/kg selected for the expansion phase. Extensive pharmacodynamics (PD) parameters such as the extent of mobilization were assessed during the study. Clinical response to treatment was determined by BM biopsy on day 30.
Measuring Blast-Cell Density in Peripheral Blood (PB) and Bone Marrow (BM)
Bone marrow blast-cell counts were performed using procedures essentially as described by Lee et al. (Int. Jnl. Lab. Hem. 30: 349-364, 2008).
Peripheral blast-cell counts were performed using procedures essentially as described by O'Connor, B. H., A Color Atlas and Instructions Manual of Peripheral Cell Morphology, Lippincot Williams, 1984.
Clinical responses to […] treatment were determined according to the standards of the international working group for AML (Cheson et al., J. Clin. Oncol. 21: 4642-4649, 2003; Döhner et al., Blood 115: 453-474, 2010; and de Greef et al., British Journal of Hematology 128: 184-91, 2005), which are summarized in Table 1 below.

human AML xenografts = conditions: subcutaneous injections; cited from earlier work
[2] = tested on: malignant cells of hematopoietic origin including AML; conditions: cited from earlier work
HIV-1 (X4-HIV-1) = conditions: through specific binding to CXCR4; cited from earlier work

Substance	ratio of PB blast cell density after treatment to initial density prior to treatment ([1]; day 2 following treatment with BL-8040, non-responsive patients (SD and PD))	ratio of PB blast cell density after treatment to initial density prior to treatment ([1]; day 2 following treatment with BL-8040, responsive patients, CR, prior to cytarabine)	ratio of PB blast cell density after treatment to initial density prior to treatment ([1]; day 2 following treatment with BL-8040, responsive patients, CRi, prior to cytarabine)	ratio of PB blast cell density after treatment to initial density prior to treatment ([1]; day 3, 8 hr following day 3 injection (after initiation of cytarabine), non-responsive patients (SD and PD))	ratio of PB blast cell density after treatment to initial density prior to treatment ([1]; day 3, 8 hr following day 3 injection (after initiation of cytarabine), responsive patients, CR)	ratio of PB blast cell density after treatment to initial density prior to treatment ([1]; day 3, 8 hr following day 3 injection (after initiation of cytarabine), responsive patients, CRi)	ratio of PB blast cell density after treatment to initial density prior to treatment ([1]; day 3 following initial treatment with BL-8040, non-responsive patients (SD and PD))	ratio of PB blast cell density after treatment to initial density prior to treatment ([1]; day 3 following initial treatment with BL-8040, responsive patients, CR, prior to cytarabine)	ratio of PB blast cell density after treatment to initial density prior to treatment ([1]; day 3 following initial treatment with BL-8040, responsive patients, CRi, prior to cytarabine)	increase of PB blast-cell density versus baseline ([1]; non-responsive patients, after 2 or 3 days following first administration of BL-8040)	increase of PB blast-cell density versus baseline ([1]; responsive patients (CR, CRi or CRp), after 2 days following first administration of BL-8040)	increase of PB blast-cell density versus baseline ([1]; responsive patients (CR, CRi or CRp), after 3 days following first administration of BL-8040)	growth of human AML xenografts (human AML xenografts)	cytotoxicity toward malignant cells of hematopoietic origin including AML [2]	HIV-1 (X4-HIV-1) entry to T cells (HIV-1 (X4-HIV-1))
4F-benzoyl-Arg-Arg-Nal-Cys-Tyr-Cit-Lys-DLys-Pro-Tyr-Arg-Cit-Cys-Arg-NH2 [BL-8040]	no increase was observed	2.1 fold	4.0 fold	no significant increase was observed	7.0 fold	4.2 fold	no significant increase was observed	2.1 fold	2.9 fold	did not increase	3.7 fold	3.8 fold	significantly reduced	CXCR4-dependent preferential cytotoxicity	
H-Arg-Arg-Nal-Cys-Tyr-Arg-Lys-DLys-Pro-Tyr-Arg-Cit-Cys-Arg-OH (H-RR[2Nal]CYRK[dK]PYR[Cit]CR-OH; disulfide 4-13) [Analog T-140]															suppress
